Results published in patent US7538116B2, “Treatment of sexual disorders” (priority 2003, dated 2009).

Tests used:
Format in all cases: in vivo, human
subjects with depression = experiment: DISF interview, short-term investigation in depression (134004); details: trial 134004; for mean change from baseline in total score (DISF interview): short-term treatment
Procedure: (§1) Sexual dysfunction and recovery were measured with the Derogatis Interview for Sexual Functioning (DISF/DISF-SR). This provides for a coordinated set of brief matched instruments designed to provide an estimate of the quality of an individual's current sexual functioning. The DISF is a semi-structured interview comprising 25 items and reflecting quality of sexual functioning in a multi-domain format. The DISF-SR is a matching Self-Report (SR) inventory designed to accomplish the same goal in a patient self-report mode. There are gender specific male and female versions of both the DISF and the DISF-SR. All instruments in the DISF series are designed to be interpreted at three distinct levels: Discrete Items, Functional Domains, and aggregate summary (Total Score). The Discrete Items are arranged into five primary Functional Domains of sexual functioning: (I) sexual cognition/fantasy, (II) sexual arousal, (III) sexual behavior/experience, (IV) orgasm, and (V) sexual drive/relationship. Both the DISF and the DISF-SR take approximately 12 to 15 minutes to administer. Internal consistency reliabilities for domain scores of the DISF-SR range from 0.70 to 0.77, while test-retest stability coefficients are 0.80 to 0.90 and 0.86 for the Total Score. Inter-rater reliability estimates for the DISF interview ranged from 0.84 to 0.92 for domain scores, and 0.91 for the Total. […] The DISF/DISF-SR is currently available in 10 foreign languages.
(§2) The Derogatis Interview was used, providing information on the quality of the subject's sexual functioning in quantitative terms. Only subjects who were willing to discuss their sexual functioning with the investigator were to be included. In addition, the scores from the interview, as well as demographic and medical history information, were to be used by the investigator to determine whether or not the subject reached the threshold of disorder (absent or present) for the primary criteria for the DSM-IV Sexual Disorders.
DISF interview data from the analysis of another investigation of gepirone in depression (Organon internal reference number: 134004) were analyzed. […] Upon analysis of change from baseline in total score only for each domain for females and Domains I to III for males, similar conclusions for subjects who received gepirone and fluoxetine could be drawn.

[1] = test system: subjects from trial 134004; experiment: DISF interview, long-term trial 134502 (continued or switched therapy)
Procedure: as §1, §2
In another study (Organon's Internal reference number 134501), all subjects received gepirone ER (40 mg) after having completed a trial wherein subjects were randomized to receive either gepirone ER or placebo. DISF-SR data from the analysis of this long-term trial were analyzed. For females, data were available for 23 subjects who received gepirone in a previous trial (Organon internal reference: 134001 or 134002) previously (henceforth referred to as gepirone in this paragraph) and 23 subjects who received placebo previously (henceforth referred to as placebo in this paragraph). […] For males, data were available for 17 subjects who received gepirone and 17 subjects who received placebo. […] DISF Interview data from the analysis of another long-term trial (Organon internal reference: 134502) were analyzed. In this trial subjects from a previous trial (Organon internal reference:134004) were continued on therapy or were switched to a new drug, depending on antidepressant response.

depressed patients = experiment: Specific case descriptions, long-term open-label study
Source text: In another trial patients were enrolled in a long-term open-label study of depressed patients. […] It was observed that most of the reports were from patients in long-term therapy who had recovered from their depression weeks to months before making the reports. These reports provided incidental observations on both men and women of various ages that sexual desire had increased to a level not previously experienced by the subject and which was quite pleasing to them. It appeared that these patients were no longer depressed and now had the added benefit that sexual function, sexual relationships, and quality of life were improved beyond that experienced by patients merely recovering from depression. […] They were pursuing a dating life for the first time in years. […] They were not depressed anymore and the sexual effects continued to increase. […] They were successful and carried out a satisfying sexual relationship for the fist time since the death of their spouse. They were reported to be “giddy” over the effects of gepirone in this domain. Their quality of life was judged as much improved by the investigator.

[2] = test system: subjects from trials 134001 or 134002; experiment: DISF-SR, long-term trial 134501 (all subjects on gepirone ER); details: then gepirone ER 40 mg
Procedure: as §1, §2
In another study (Organon's Internal reference number 134501), all subjects received gepirone ER (40 mg) after having completed a trial wherein subjects were randomized to receive either gepirone ER or placebo. DISF-SR data from the analysis of this long-term trial were analyzed. For females, data were available for 23 subjects who received gepirone in a previous trial (Organon internal reference: 134001 or 134002) previously (henceforth referred to as gepirone in this paragraph) and 23 subjects who received placebo previously (henceforth referred to as placebo in this paragraph). […] DISF Interview data from the analysis of another long-term trial (Organon internal reference: 134502) were analyzed. […]

depressed outpatients = experiment: DISF-SR, combined analysis of two short-term investigations (134001 and 134002); details: short-term treatment (2 months), 134001 and 134002 combined
Procedure: Sexual dysfunction and recovery were measured with the Derogatis Interview for Sexual Functioning (DISF/DISF-SR). This provides for a coordinated set of brief matched instruments designed to provide an estimate of the quality of an individual's current sexual functioning. The DISF is a semi-structured interview comprising 25 items and reflecting quality of sexual functioning in a multi-domain format. The DISF-SR is a matching Self-Report (SR) inventory designed to accomplish the same goal in a patient self-report mode. There are gender specific male and female versions of both the DISF and the DISF-SR. All instruments in the DISF series are designed to be interpreted at three distinct levels: Discrete Items, Functional Domains, and aggregate summary (Total Score). The Discrete Items are arranged into five primary Functional Domains of sexual functioning: (I) sexual cognition/fantasy, (II) sexual arousal, (III) sexual behavior/experience, (IV) orgasm, and (V) sexual drive/relationship. Both the DISF and the DISF-SR take approximately 12 to 15 minutes to administer. […]
The Derogatis Interview was used, providing information on the quality of the subject's sexual functioning in quantitative terms. […]
DISF-SR data from the combined analysis of two investigations of gepirone in depressed outpatients (Organon internal reference: 134001 and 134002) were analyzed. […]

[3] = test system: subjects in remission from depression; experiment: DISF total score, longer-term trial 28709 (randomized after remission); details: for mean change from baseline in total score (DISF): gepirone HCl ER 40 mg, randomized after remission
Procedure: as §1
The Derogatis Interview was used, providing information on the quality of the subject's sexual functioning in quantitative terms. Only subjects who were willing to discuss their sexual functioning with the investigator were to be included. In addition, the scores from the interview, as well as demographic and medical history information, were to be used by the investigator to determine whether or not the subject reached the threshold of disorder (absent or present) for the primary criteria for the DSM-IV Sexual Disorders. […]

[4] = males, same treatment throughout short-term (134004) and long-term (134502) trials

CNCCC(Oc1ccc(C(F)(F)F)cc1)c1ccccc1 (centres unmarked) [fluoxetine]
mean change from baseline in total score (DISF interview) (subjects with depression; females): −3.5
mean change from baseline in total score (DISF interview) (subjects with depression; males): −4.4
mean change from baseline in total score (DISF interview) ([1]; females, switched from gepirone to fluoxetine, trial 134502): +0.9
mean change from baseline in total score (DISF interview) [1, 4]: −1.2
mean change from baseline in total score (DISF interview) ([1]; males, switched from gepirone to fluoxetine, trial 134502): −5.8

CC1(C)CC(=O)N(CCCCN2CCN(c3ncccn3)CC2)C(=O)C1 [gepirone, 4,4-dimethyl-1-[4-[4-(2-pyrimidinyl)-1-piperazinyl]butyl]-2,6-piperidinedione]
mean change from baseline in total score (DISF interview) (subjects with depression; females): +4.3
mean change from baseline in total score (DISF interview) (subjects with depression; males): 0
change from baseline in total score for Domains IV (orgasm) and V (sexual drive/relationship) (subjects with depression; males): improvement in total score from baseline
mean change from baseline in total score (DISF interview) ([1]; females, same treatment throughout short-term (134004) and long-term (134502) trials): +18.1
mean change from baseline in total score (DISF interview) ([1]; females, switched from fluoxetine to gepirone, trial 134502): +2.3
mean change from baseline in total score (DISF interview) ([1]; females, switched from placebo to gepirone, trial 134502): +4.2
mean change from baseline in total score (DISF interview) [1, 4]: +5.5
mean change from baseline in total score (DISF interview) ([1]; males, switched from fluoxetine to gepirone, trial 134502): +3.3
mean change from baseline in total score (DISF interview) ([1]; males, switched from placebo to gepirone, trial 134502): +7.1
quality of life judged by the investigator (case report) (depressed patients; patient): much improved
orgasms (case report) (depressed patients; person on open-label therapy, no longer depressed): more frequent and more intense
libido (case report) (depressed patients; person, on gepirone for nearly a year): libido was up
mean change from baseline in total score (DISF-SR) ([2]; females, gepirone in previous trial): +11.2
mean change from baseline in total score (DISF-SR) ([2]; females, placebo in previous trial): +3.3
mean change from baseline in total score (DISF-SR) ([2]; males, gepirone in previous trial): +12.3
mean change from baseline in total score (DISF-SR) ([2]; males, placebo in previous trial): −4.4
mean change from baseline in total score (DISF-SR) (depressed outpatients; females): +8.0
mean change from baseline in total score (DISF-SR) (depressed outpatients; males): +13.7
mean change from baseline in total score (DISF) ([3]; females): +5.2
Domains IV (orgasm) and V (sexual drive/relationship), total score from baseline ([3]; males): improvement in total score from baseline
mean change from baseline in total score (DISF) ([3]; males): +18.7
